# In ChEMBL document CHEMBL3272133, “1-[4-(4-Chlorophenyl)-2-(2,6-dichlorophenylthio)-n-butyl]-1H-imidazole nitrate, a new potent antifungal agent” (J Med Chem, 1978):
# The source made the active and inactive calls. The rule behind the calls is not given here.
# Key:
# Salmonella typhimurium [1] = assay: Toxicity in Salmonella typhimurium TA-100 at 500 ug/plate; assay type: organism-based; details: salmonella enterica subsp. enterica serovar typhimurium
# Salmonella typhimurium [2] = assay: Toxicity in Salmonella typhimurium TA-1538 at 500 ug/plate; assay type: organism-based; details: salmonella enterica subsp. enterica serovar typhimurium
# Candida albicans [3] = assay: Antifungal activity against mixed infection of Candida albicans infected in mouse assessed as noninfected animals at 0.1% formulation administered vaginally bid for 4 days measured on day 7 relative to placebo; assay type: functional
# [4] = Acute toxicity in po dosed female rat; assay type: organism-based; details: in vivo
# Microsporum canis = assay: Antifungal activity against Microsporum canis assessed as growth inhibition by agar dilution method; assay type: functional
# Salmonella typhimurium [5] = assay: Toxicity in Salmonella typhimurium TA-1537 at 500 ug/plate; assay type: organism-based; details: salmonella enterica subsp. enterica serovar typhimurium
# Saccharomyces cerevisiae [6] = assay: Toxicity in Saccharomyces cerevisiae D4 at 500 ug/plate; assay type: organism-based; details: in vivo
# Salmonella typhimurium [7] = assay: Toxicity in Salmonella typhimurium TA-98 at 500 ug/plate; assay type: organism-based; details: salmonella enterica subsp. enterica serovar typhimurium
# Staphylococcus aureus [8] = assay: Antibacterial activity against Staphylococcus aureus No. 14154 assessed as growth inhibition by broth microdilution method; assay type: functional
# [9] = tested on: Trichophyton mentagrophytes; assay: Antifungal activity against Trichophyton mentagrophytes infected in guinea pig assessed as noninfected animals at 0.5% formulation in steryl alcohol, cetyl alcohol, Span 60, Tween 60, propylene glycol, mineral oil, and water administered qd for 5 days measured on day 7; assay type: functional
# Streptococcus pyogenes = assay: Antibacterial activity against Streptococcus pyogenes No. 8668 assessed as growth inhibition by broth microdilution method; assay type: functional
# [10] = Antifungal activity against Trichophyton concentricum assessed as growth inhibition by agar dilution method; assay type: functional
# Candida albicans [11] = assay: Antifungal activity against Candida albicans infected in mouse assessed as noninfected animals at 1% formulation in neat PEG 400 solution administered vaginally bid for 4 days measured on day 7 relative to placebo; assay type: functional
# Candida albicans [12] = assay: Antifungal activity against Candida albicans infected in mouse assessed as noninfected animals at 0.25 to 4% formulation in neat PEG 400 solution administered vaginally bid for 4 days measured on day 21; assay type: functional, organism-based
# [13] = tested on: Trichophyton mentagrophytes; assay: Antifungal activity against Trichophyton mentagrophytes infected in guinea pig assessed as noninfected animals at 0.5% formulation in steryl alcohol, cetyl alcohol, Span 60, Tween 60, propylene glycol, mineral oil, and water administered qd for 5 days measured on day 4; assay type: functional
# Epidermophyton floccosum = assay: Antifungal activity against Epidermophyton floccosum assessed as growth inhibition by agar dilution method; assay type: functional
# [14] = tested on: Trichophyton mentagrophytes; assay: Antifungal activity against Trichophyton mentagrophytes infected in guinea pig assessed as noninfected animals at 0.5% formulation in steryl alcohol, cetyl alcohol, Span 60, Tween 60, propylene glycol, mineral oil, and water administered qd for 5 days measured on day 14; assay type: functional
# Candida albicans [15] = assay: Antifungal activity against Candida albicans infected in mouse assessed as noninfected animals at 0.25% formulation in neat PEG 400 solution administered vaginally bid for 4 days measured on day 7 relative to placebo; assay type: functional
# Candida albicans [16] = assay: Antifungal activity against mixed infection of Candida albicans infected in mouse assessed as noninfected animals at 0.5% formulation administered vaginally bid for 4 days measured 6 hrs post last dose relative to placebo; assay type: functional
# Candida albicans [17] = assay: Antifungal activity against mixed infection of Candida albicans infected in mouse assessed as noninfected animals at 1% formulation administered vaginally bid for 4 days measured 6 hrs post last dose relative to placebo; assay type: functional
# Staphylococcus aureus [18] = assay: Antibacterial activity against Staphylococcus aureus No. 6538 P assessed as growth inhibition by broth microdilution method; assay type: functional
# Salmonella typhimurium [19] = assay: Mutagenic activity in Salmonella typhimurium TA-1537 at 0.1 to 100 ug/plate by Ames assay; assay type: toxicity, organism-based; details: salmonella enterica subsp. enterica serovar typhimurium
# Salmonella typhimurium [20] = assay: Mutagenic activity in Salmonella typhimurium TA-98 at 0.1 to 100 ug/plate by Ames assay; assay type: toxicity, organism-based; details: salmonella enterica subsp. enterica serovar typhimurium
# [21] = tested on: Trichophyton mentagrophytes; assay: Antifungal activity against Trichophyton mentagrophytes assessed as growth inhibition by agar dilution method; assay type: functional
# Cryptococcus neoformans = assay: Antifungal activity against Cryptococcus neoformans assessed as growth inhibition by broth dilution method; assay type: functional
# Candida albicans [22] = assay: Antifungal activity against mixed infection of Candida albicans infected in mouse assessed as noninfected animals at 0.2% formulation administered vaginally bid for 4 days measured 6 hrs post last dose relative to placebo; assay type: functional
# Enterococcus faecalis = assay: Antibacterial activity against Streptococcus faecalis No. 8043-2 assessed as growth inhibition by broth microdilution method; assay type: functional
# Candida albicans [23] = assay: Antifungal activity against Candida albicans infected in mouse assessed as noninfected animals at 0.5% formulation in neat PEG 400 solution administered vaginally bid for 4 days measured on day 7 relative to placebo; assay type: functional
# Salmonella typhimurium [24] = assay: Mutagenic activity in Salmonella typhimurium TA-1538 at 0.1 to 100 ug/plate by Ames assay in presence of rat liver microsomal enzyme preparation; assay type: toxicity, organism-based; details: salmonella enterica subsp. enterica serovar typhimurium, microsomes
# Saccharomyces cerevisiae [25] = assay: Mutagenic activity in Saccharomyces cerevisiae D4 at 0.1 ug/plate by Ames assay; assay type: organism-based
# [26] = Acute toxicity in po dosed male rat; assay type: organism-based; details: in vivo
# Salmonella typhimurium [27] = assay: Mutagenic activity in Salmonella typhimurium TA-100 at 0.1 to 100 ug/plate by Ames assay; assay type: toxicity, organism-based; details: salmonella enterica subsp. enterica serovar typhimurium
# Candida albicans [28] = assay: Antifungal activity against mixed infection of Candida albicans infected in mouse assessed as noninfected animals at 1% formulation in modified PEG 400 solution administered vaginally bid for 4 days measured on day 7 relative to placebo; assay type: functional
# Candida albicans [29] = assay: Antifungal activity against Candida albicans ATCC 14053 assessed as growth inhibition by broth dilution method; assay type: functional
# Trichophyton tonsurans = assay: Antifungal activity against Trichophyton tonsurans assessed as growth inhibition by agar dilution method; assay type: functional
# Candida albicans [30] = assay: Antifungal activity against Candida albicans infected in mouse assessed as noninfected animals at 0.25% formulation in neat PEG 400 solution administered vaginally bid for 4 days measured 6 hrs post last dose relative to placebo; assay type: functional
# Salmonella typhimurium [31] = assay: Mutagenic activity in Salmonella typhimurium TA-100 at 0.1 to 100 ug/plate by Ames assay in presence of rat liver microsomal enzyme preparation; assay type: toxicity, organism-based; details: salmonella enterica subsp. enterica serovar typhimurium, microsomes
# Salmonella typhimurium [32] = assay: Mutagenic activity in Salmonella typhimurium TA-98 at 0.1 to 100 ug/plate by Ames assay in presence of rat liver microsomal enzyme preparation; assay type: toxicity, organism-based; details: salmonella enterica subsp. enterica serovar typhimurium, microsomes
# Salmonella typhimurium [33] = assay: Mutagenic activity in Salmonella typhimurium TA-1535 at 0.1 to 100 ug/plate by Ames assay in presence of rat liver microsomal enzyme preparation; assay type: toxicity, organism-based; details: salmonella enterica subsp. enterica serovar typhimurium, microsomes
# [34] = Acute toxicity in ip dosed mouse; assay type: organism-based; details: in vivo
# Candida albicans [35] = assay: Antifungal activity against Candida albicans infected in mouse assessed as noninfected animals at 0.5% formulation in neat PEG 400 solution administered vaginally bid for 4 days measured 6 hrs post last dose relative to placebo; assay type: functional
# Candida albicans [36] = assay: Antifungal activity against mixed infection of Candida albicans infected in mouse assessed as noninfected animals at 0.5% formulation administered vaginally bid for 4 days measured on day 7 relative to placebo; assay type: functional
# Candida albicans [37] = assay: Antifungal activity against mixed infection of Candida albicans infected in mouse assessed as noninfected animals at 0.2% formulation administered vaginally bid for 4 days measured on day 7 relative to placebo; assay type: functional
# Salmonella typhimurium [38] = assay: Mutagenic activity in Salmonella typhimurium TA-1537 at 0.1 to 100 ug/plate by Ames assay in presence of rat liver microsomal enzyme preparation; assay type: toxicity, organism-based; details: salmonella enterica subsp. enterica serovar typhimurium, microsomes
# Candida albicans [39] = assay: Antifungal activity against mixed infection of Candida albicans infected in mouse assessed as noninfected animals at 1% formulation administered vaginally bid for 4 days measured on day 7 relative to placebo; assay type: functional
# Salmonella typhimurium [40] = assay: Mutagenic activity in Salmonella typhimurium TA-1535 at 0.1 to 100 ug/plate by Ames assay; assay type: toxicity, organism-based; details: salmonella enterica subsp. enterica serovar typhimurium
# [41] = Acute toxicity in ip dosed rat; assay type: organism-based; details: in vivo
# Candida albicans [42] = assay: Antifungal activity against Candida albicans infected in mouse assessed as noninfected animals at 2% formulation in neat PEG 400 solution administered vaginally bid for 4 days measured 6 hrs post last dose relative to placebo; assay type: functional
# Candida albicans [43] = assay: Antifungal activity against Candida albicans infected in mouse assessed as noninfected animals at 2% formulation in neat PEG 400 solution administered vaginally bid for 4 days measured on day 7 relative to placebo; assay type: functional
# Salmonella typhimurium [44] = assay: Toxicity in Salmonella typhimurium TA-1535 at 500 ug/plate; assay type: organism-based; details: salmonella enterica subsp. enterica serovar typhimurium
# Saccharomyces cerevisiae [45] = assay: Mutagenic activity in Saccharomyces cerevisiae D4 at 0.1 ug/plate by Ames assay in presence of rat liver microsomal enzyme preparation; assay type: toxicity, organism-based; details: microsomes
# Candida albicans [46] = assay: Antifungal activity against Candida albicans infected in mouse assessed as noninfected animals at 1% formulation in neat PEG 400 solution administered vaginally bid for 4 days measured 6 hrs post last dose relative to placebo; assay type: functional
# Nannizzia gypsea = assay: Antifungal activity against Microsporum gypseum assessed as growth inhibition by agar dilution method; assay type: functional
# Salmonella typhimurium [47] = assay: Mutagenic activity in Salmonella typhimurium TA-1538 at 0.1 to 100 ug/plate by Ames assay; assay type: toxicity, organism-based; details: salmonella enterica subsp. enterica serovar typhimurium
# Trichophyton rubrum = assay: Antifungal activity against Trichophyton rubrum assessed as growth inhibition by agar dilution method; assay type: functional
# [48] = Acute toxicity in po dosed mouse; assay type: organism-based; details: in vivo
# Candida albicans [49] = assay: Antifungal activity against mixed infection of Candida albicans infected in mouse assessed as noninfected animals at 0.1% formulation administered vaginally bid for 4 days measured 6 hrs post last dose relative to placebo; assay type: functional
# Candida albicans [50] = assay: Antifungal activity against Candida albicans ATCC 10231 assessed as growth inhibition by broth dilution method; assay type: functional
smiles,measurement,setting,value
Clc1ccc(CCC(Cn2ccnc2)Sc2c(Cl)cccc2Cl)cc1.O=[N+]([O-])O (stereo not drawn) [BUTOCONAZOLE NITRATE],Activity,Salmonella typhimurium [1],Toxic
same,Activity,Salmonella typhimurium [2],Toxic
same,Activity,Candida albicans [3],40%
same,LD50,[4],1720 mg/kg
same,GI,Microsporum canis,0.1 µg/mL
same,Activity,Salmonella typhimurium [5],Toxic
same,Activity,Saccharomyces cerevisiae [6],Toxic
same,Activity,Salmonella typhimurium [7],Toxic
same,GI,Staphylococcus aureus [8],12.5 µg/mL
same,Activity,[9],90%
same,GI,Streptococcus pyogenes,0.0016 µg/mL
same,GI,[10],0.05 µg/mL
same,Activity,Candida albicans [11],95%
same,Activity,Candida albicans [12],Active
same,Activity,[13],60%
same,GI,Epidermophyton floccosum,5 µg/mL
same,Activity,[14],40%
same,Activity,Candida albicans [15],75%
same,Activity,Candida albicans [16],65%
same,Activity,Candida albicans [17],84%
same,GI,Staphylococcus aureus [18],6.25 µg/mL
same,Activity,Salmonella typhimurium [19],Non-toxic
same,Activity,Salmonella typhimurium [20],Non-toxic
same,GI,[21],1 µg/mL
same,GI,Cryptococcus neoformans,<=1 ug ml-1
same,Activity,Candida albicans [22],60%
same,GI,Enterococcus faecalis,3.12 µg/mL
same,Activity,Candida albicans [23],75%
same,Activity,Salmonella typhimurium [24],Non-toxic
same,Activity,Saccharomyces cerevisiae [25],Non-toxic
same,LD50,[26],> 3200 mg/kg
same,Activity,Salmonella typhimurium [27],Non-toxic
same,Activity,Candida albicans [28],55%
same,GI,Candida albicans [29],10 µg/mL
same,GI,Trichophyton tonsurans,5 µg/mL
same,Activity,Candida albicans [30],75%
same,Activity,Salmonella typhimurium [31],Non-toxic
same,Activity,Salmonella typhimurium [32],Non-toxic
same,Activity,Salmonella typhimurium [33],Non-toxic
same,LD50,[34],> 1600 mg/kg
same,Activity,Candida albicans [35],80%
same,Activity,Candida albicans [36],60%
same,Activity,Candida albicans [37],63%
same,Activity,Salmonella typhimurium [38],Non-toxic
same,Activity,Candida albicans [39],83%
same,Activity,Salmonella typhimurium [40],Non-toxic
same,LD50,[41],940 mg/kg
same,Activity,Candida albicans [42],85%
same,Activity,Candida albicans [43],85%
same,Activity,Salmonella typhimurium [44],Toxic
same,Activity,Saccharomyces cerevisiae [45],Non-toxic
same,Activity,Candida albicans [46],90%
same,GI,Nannizzia gypsea,0.05 µg/mL
same,Activity,Salmonella typhimurium [47],Non-toxic
same,GI,Trichophyton rubrum,0.05 µg/mL
same,LD50,[48],> 3200 mg/kg
same,Activity,Candida albicans [49],35%
same,GI,Candida albicans [50],30 µg/mL
